{"source": "patent US12233081B2", "about": "“Hygromycin a compounds and methods of treating spirochete diseases” (priority 2018, dated 2025)", "test_system": "gut microbiome", "assay": "gut microbiome 16S rRNA sequencing of stool of infected, treated mice", "settings": "for Enterococcaceae change in percent relative abundance: 100 mg/kg", "key": {"[1]": {"settings": "oral 100 mg/kg every 12 hours for 5 days"}}, "data": [{"compound": "CC1(C)S[C@@H]2[C@H](NC(=O)[C@H](N)c3ccc(O)cc3)C(=O)N2[C@H]1C(=O)O", "note": "[Amox, amoxicillin]", "values": [{"measurement": "Francisellaceae change in percent relative abundance", "setting": "IP 100 mg/kg every 12 hours for 5 days", "value": 0.001, "unit": "%"}, {"measurement": "Aerococcaceae change in percent relative abundance", "setting": "[1]", "value": 0.000, "unit": "%"}, {"measurement": "Anaerolineaceae change in percent relative abundance", "setting": "[1]", "value": 0.000, "unit": "%"}, {"measurement": "Anaeroplasmataceae change in percent relative abundance", "setting": "[1]", "value": "−0.048", "unit": "%"}, {"measurement": "Anaplasmataceae change in percent relative abundance", "setting": "[1]", "value": 0.000, "unit": "%"}, {"measurement": "Aspergillaceae change in percent relative abundance", "setting": "[1]", "value": 0.000, "unit": "%"}, {"measurement": "Asteraceae change in percent relative abundance", "setting": "[1]", "value": 0.003, "unit": "%"}, {"measurement": "Bacillaceae change in percent relative abundance", "setting": "[1]", "value": 0.002, "unit": "%"}, {"measurement": "Bacillales change in percent relative abundance", "setting": "[1]", "value": "−0.100", "unit": "%"}, {"measurement": "Bacteroidaceae change in percent relative abundance", "setting": "[1]", "value": "−8.426", "unit": "%"}, {"measurement": "Bifidobacteriaceae change in percent relative abundance", "setting": "[1]", "value": "−0.124", "unit": "%"}, {"measurement": "Brucellaceae change in percent relative abundance", "setting": "[1]", "value": 0.001, "unit": "%"}, {"measurement": "Camobacteriaceae change in percent relative abundance", "setting": "[1]", "value": "−0.002", "unit": "%"}, {"measurement": "Chitinophagaceae change in percent relative abundance", "setting": "[1]", "value": 0.000, "unit": "%"}, {"measurement": "Christensenellaceae change in percent relative abundance", "setting": "[1]", "value": 0.000, "unit": "%"}, {"measurement": "Clostridiaceae change in percent relative abundance", "setting": "[1]", "value": "−6.891", "unit": "%"}, {"measurement": "Clostridiales change in percent relative abundance", "setting": "[1]", "value": "−0.099", "unit": "%"}, {"measurement": "Clostridiales family xi. incertae sedis change in percent relative abundance", "setting": "[1]", "value": "−0.027", "unit": "%"}, {"measurement": "Clostridiales family xiii. incertae sedis change in percent relative abundance", "setting": "[1]", "value": "−0.011", "unit": "%"}, {"measurement": "Coriobacteriaceae change in percent relative abundance", "setting": "[1]", "value": "−0.019", "unit": "%"}, {"measurement": "Corynebacteriaceae change in percent relative abundance", "setting": "[1]", "value": 0.000, "unit": "%"}, {"measurement": "Cytophagaceae change in percent relative abundance", "setting": "[1]", "value": "−0.001", "unit": "%"}, {"measurement": "Deferribacteraceae change in percent relative abundance", "setting": "[1]", "value": "−0.085", "unit": "%"}, {"measurement": "Defluviitaleaceae change in percent relative abundance", "setting": "[1]", "value": "−0.001", "unit": "%"}, {"measurement": "Desulfobacteraceae change in percent relative abundance", "setting": "[1]", "value": 0.000, "unit": "%"}, {"measurement": "Enterobacteriaceae change in percent relative abundance", "setting": "[1]", "value": "−1.496", "unit": "%"}, {"measurement": "Erysipelotrichaceae change in percent relative abundance", "setting": "[1]", "value": "−2.932", "unit": "%"}, {"measurement": "Eubacteriaceae change in percent relative abundance", "setting": "[1]", "value": 4.510, "unit": "%"}, {"measurement": "Fabaceae change in percent relative abundance", "setting": "[1]", "value": 0.001, "unit": "%"}, {"measurement": "Flavobacteriaceae change in percent relative abundance", "setting": "[1]", "value": 0.000, "unit": "%"}, {"measurement": "Francisellaceae change in percent relative abundance", "setting": "[1]", "value": "−0.001", "unit": "%"}, {"measurement": "Fusobacteriaceae change in percent relative abundance", "setting": "[1]", "value": 0.000, "unit": "%"}, {"measurement": "Gammaproteobacteria change in percent relative abundance", "setting": "[1]", "value": "−0.027", "unit": "%"}, {"measurement": "Gloeobacteraceae change in percent relative abundance", "setting": "[1]", "value": "−0.013", "unit": "%"}, {"measurement": "Gracilibacteraceae change in percent relative abundance", "setting": "[1]", "value": "−0.105", "unit": "%"}, {"measurement": "Halomonadaceae change in percent relative abundance", "setting": "[1]", "value": 0.001, "unit": "%"}, {"measurement": "Hylidae change in percent relative abundance", "setting": "[1]", "value": 0.002, "unit": "%"}, {"measurement": "Kopriimonadaceae change in percent relative abundance", "setting": "[1]", "value": 0.000, "unit": "%"}, {"measurement": "Lachnospiraceae change in percent relative abundance", "setting": "[1]", "value": "−5.482", "unit": "%"}, {"measurement": "Lactobacillaceae change in percent relative abundance", "setting": "[1]", "value": "−15.023", "unit": "%"}, {"measurement": "Leuconostocaceae change in percent relative abundance", "setting": "[1]", "value": 0.002, "unit": "%"}, {"measurement": "Methylobacteriaceae change in percent relative abundance", "setting": "[1]", "value": 0.000, "unit": "%"}, {"measurement": "Microbacteriaceae change in percent relative abundance", "setting": "[1]", "value": 0.000, "unit": "%"}, {"measurement": "Mucoraceae change in percent relative abundance", "setting": "[1]", "value": 0.002, "unit": "%"}, {"measurement": "Nostocaceae change in percent relative abundance", "setting": "[1]", "value": 0.001, "unit": "%"}, {"measurement": "Onagraceae change in percent relative abundance", "setting": "[1]", "value": 0.000, "unit": "%"}, {"measurement": "Oscillatoriales change in percent relative abundance", "setting": "[1]", "value": 0.069, "unit": "%"}, {"measurement": "Oscillospiraceae change in percent relative abundance", "setting": "[1]", "value": "−0.005", "unit": "%"}, {"measurement": "Paenibacillaceae change in percent relative abundance", "setting": "[1]", "value": "−0.001", "unit": "%"}, {"measurement": "Pasteurellaceae change in percent relative abundance", "setting": "[1]", "value": 0.000, "unit": "%"}, {"measurement": "Pelobacteraceae change in percent relative abundance", "setting": "[1]", "value": 0.000, "unit": "%"}, {"measurement": "Peptococcaceae change in percent relative abundance", "setting": "[1]", "value": "−0.948", "unit": "%"}, {"measurement": "Peptoniphilaceae change in percent relative abundance", "setting": "[1]", "value": 0.000, "unit": "%"}, {"measurement": "Peptostreptococcaceae change in percent relative abundance", "setting": "[1]", "value": "−0.187", "unit": "%"}, {"measurement": "Physalacriaceae change in percent relative abundance", "setting": "[1]", "value": 0.000, "unit": "%"}, {"measurement": "Poaceae change in percent relative abundance", "setting": "[1]", "value": 0.107, "unit": "%"}, {"measurement": "Polyangiaceae change in percent relative abundance", "setting": "[1]", "value": 0.000, "unit": "%"}, {"measurement": "Porphyromonadaceae change in percent relative abundance", "setting": "[1]", "value": "−19.192", "unit": "%"}, {"measurement": "Prevotellaceae change in percent relative abundance", "setting": "[1]", "value": "−0.240", "unit": "%"}, {"measurement": "Pseudomonadaceae change in percent relative abundance", "setting": "[1]", "value": 0.000, "unit": "%"}, {"measurement": "Rhizobiaceae change in percent relative abundance", "setting": "[1]", "value": 0.001, "unit": "%"}, {"measurement": "Rhodobacteraceae change in percent relative abundance", "setting": "[1]", "value": 0.000, "unit": "%"}, {"measurement": "Rikenellaceae change in percent relative abundance", "setting": "[1]", "value": "−6.166", "unit": "%"}, {"measurement": "Ruminococcaceae change in percent relative abundance", "setting": "[1]", "value": "−1.440", "unit": "%"}, {"measurement": "Sphingomonadaceae change in percent relative abundance", "setting": "[1]", "value": 0.000, "unit": "%"}, {"measurement": "Spirochaetaceae change in percent relative abundance", "setting": "[1]", "value": "−0.056", "unit": "%"}, {"measurement": "Spiroplasmataceae change in percent relative abundance", "setting": "[1]", "value": "−0.004", "unit": "%"}, {"measurement": "Staphylococcaceae change in percent relative abundance", "setting": "[1]", "value": 0.000, "unit": "%"}, {"measurement": "Streptococcaceae change in percent relative abundance", "setting": "[1]", "value": "−2.376", "unit": "%"}, {"measurement": "Thermoanaerobacteraceae change in percent relative abundance", "setting": "[1]", "value": "−0.028", "unit": "%"}, {"measurement": "Veillonellaceae change in percent relative abundance", "setting": "[1]", "value": 0.001, "unit": "%"}, {"measurement": "Verrucomicrobiaceae change in percent relative abundance", "setting": "[1]", "value": "−0.009", "unit": "%"}, {"measurement": "Xanthomonadaceae change in percent relative abundance", "setting": "[1]", "value": 0.002, "unit": "%"}, {"measurement": "all other commensal taxa such as Bacteroidaceae and Lactobacillaceae", "setting": "[1]", "value": "depleted"}, {"measurement": "mice with Enterococcaceae blooms", "setting": "[1]", "value": "4/5"}, {"measurement": "Enterococcaceae change in percent relative abundance", "setting": "[1]", "value": 75.807, "unit": "%"}, {"measurement": "Enterococcaceae change in percent relative abundance", "setting": "oral 100 mg/kg every 12 hours for 5 days, listed as amoxicillin", "value": 75.8, "unit": "%"}]}]}
